Like-named read-outs stand apart in the source and are kept apart here.
Columns and labels:
ALK = biological target: T1, ALK (Homo sapiens, UniProt Q9UM73); experiment: ALK Kinase Assay (ELISA/TRF, PLC-γ substrate); format: biochemical; settings: read-out: ALK Potency
T1 construct: host or cells: baculovirus expression system
How it was run: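 First, plates are coated with substrate (phospholipase C-γ, 10 μg/mL, TBS). Next, 30 ng/ml ALK initiates phosphorylation for 15 min at 37° C. Then Eu-N1 PT66 antibody is added for detection, and a nonlinear dose-response fit of percent inhibition yields IC50.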

JAK2 = biological target: T2, JAK2 (Homo sapiens, UniProt O60674); experiment: Recombinant Human JAK2 Kinase Assay (TRF); format: biochemical; settings: read-out: JAK2 Potency
T2 construct: host or cells: baculovirus expression system
T2 sequence (O60674 whole entry): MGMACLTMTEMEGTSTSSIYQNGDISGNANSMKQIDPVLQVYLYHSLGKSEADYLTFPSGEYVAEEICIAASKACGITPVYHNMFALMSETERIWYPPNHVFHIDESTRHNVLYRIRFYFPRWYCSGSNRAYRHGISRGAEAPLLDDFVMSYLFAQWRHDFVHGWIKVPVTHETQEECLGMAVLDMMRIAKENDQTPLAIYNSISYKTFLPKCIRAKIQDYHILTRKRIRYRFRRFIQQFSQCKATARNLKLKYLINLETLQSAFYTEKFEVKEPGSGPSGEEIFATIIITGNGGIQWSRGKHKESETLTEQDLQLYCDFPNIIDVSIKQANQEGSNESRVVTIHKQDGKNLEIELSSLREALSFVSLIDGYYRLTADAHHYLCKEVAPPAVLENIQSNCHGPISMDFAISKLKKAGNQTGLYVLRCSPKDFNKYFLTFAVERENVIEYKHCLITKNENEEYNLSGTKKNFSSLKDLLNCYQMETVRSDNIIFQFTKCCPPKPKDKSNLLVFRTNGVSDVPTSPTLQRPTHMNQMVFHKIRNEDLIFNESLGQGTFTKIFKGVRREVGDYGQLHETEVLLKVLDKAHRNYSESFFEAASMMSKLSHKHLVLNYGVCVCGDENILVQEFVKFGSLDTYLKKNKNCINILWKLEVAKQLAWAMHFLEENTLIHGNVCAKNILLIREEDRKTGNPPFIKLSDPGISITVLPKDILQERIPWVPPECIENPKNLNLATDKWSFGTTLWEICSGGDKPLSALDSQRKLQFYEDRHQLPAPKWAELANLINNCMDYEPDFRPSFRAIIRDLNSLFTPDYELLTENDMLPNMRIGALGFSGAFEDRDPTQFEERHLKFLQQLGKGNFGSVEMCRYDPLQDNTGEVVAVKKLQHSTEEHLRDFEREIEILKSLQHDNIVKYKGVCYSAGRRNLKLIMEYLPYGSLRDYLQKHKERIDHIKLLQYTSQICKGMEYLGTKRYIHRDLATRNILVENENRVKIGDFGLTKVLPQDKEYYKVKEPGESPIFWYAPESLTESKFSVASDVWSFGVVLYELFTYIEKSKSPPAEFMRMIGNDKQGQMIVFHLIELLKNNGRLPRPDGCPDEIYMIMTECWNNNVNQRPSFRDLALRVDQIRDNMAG
How it was run: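 Baculovirus-expressed JAK2 (15 ng/ml) phosphorylated a biotinylated 15-mer peptide captured on Neutravidin, in 20 mM HEPES pH 7.2, 0.2 μM ATP, 1 mM MnCl2, 0.1% BSA, 2.5% DMSO final, 20 min at room temperature. Phosphoproduct detected by time-resolved fluorescence with Eu-N1-labelled PY100 antibody.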

[1] = ALK kinase inhibition, 1 μM ATP
[2] = JAK2 kinase inhibition, 0.2 μM ATP

T1 sequence (Q9UM73 19-1620): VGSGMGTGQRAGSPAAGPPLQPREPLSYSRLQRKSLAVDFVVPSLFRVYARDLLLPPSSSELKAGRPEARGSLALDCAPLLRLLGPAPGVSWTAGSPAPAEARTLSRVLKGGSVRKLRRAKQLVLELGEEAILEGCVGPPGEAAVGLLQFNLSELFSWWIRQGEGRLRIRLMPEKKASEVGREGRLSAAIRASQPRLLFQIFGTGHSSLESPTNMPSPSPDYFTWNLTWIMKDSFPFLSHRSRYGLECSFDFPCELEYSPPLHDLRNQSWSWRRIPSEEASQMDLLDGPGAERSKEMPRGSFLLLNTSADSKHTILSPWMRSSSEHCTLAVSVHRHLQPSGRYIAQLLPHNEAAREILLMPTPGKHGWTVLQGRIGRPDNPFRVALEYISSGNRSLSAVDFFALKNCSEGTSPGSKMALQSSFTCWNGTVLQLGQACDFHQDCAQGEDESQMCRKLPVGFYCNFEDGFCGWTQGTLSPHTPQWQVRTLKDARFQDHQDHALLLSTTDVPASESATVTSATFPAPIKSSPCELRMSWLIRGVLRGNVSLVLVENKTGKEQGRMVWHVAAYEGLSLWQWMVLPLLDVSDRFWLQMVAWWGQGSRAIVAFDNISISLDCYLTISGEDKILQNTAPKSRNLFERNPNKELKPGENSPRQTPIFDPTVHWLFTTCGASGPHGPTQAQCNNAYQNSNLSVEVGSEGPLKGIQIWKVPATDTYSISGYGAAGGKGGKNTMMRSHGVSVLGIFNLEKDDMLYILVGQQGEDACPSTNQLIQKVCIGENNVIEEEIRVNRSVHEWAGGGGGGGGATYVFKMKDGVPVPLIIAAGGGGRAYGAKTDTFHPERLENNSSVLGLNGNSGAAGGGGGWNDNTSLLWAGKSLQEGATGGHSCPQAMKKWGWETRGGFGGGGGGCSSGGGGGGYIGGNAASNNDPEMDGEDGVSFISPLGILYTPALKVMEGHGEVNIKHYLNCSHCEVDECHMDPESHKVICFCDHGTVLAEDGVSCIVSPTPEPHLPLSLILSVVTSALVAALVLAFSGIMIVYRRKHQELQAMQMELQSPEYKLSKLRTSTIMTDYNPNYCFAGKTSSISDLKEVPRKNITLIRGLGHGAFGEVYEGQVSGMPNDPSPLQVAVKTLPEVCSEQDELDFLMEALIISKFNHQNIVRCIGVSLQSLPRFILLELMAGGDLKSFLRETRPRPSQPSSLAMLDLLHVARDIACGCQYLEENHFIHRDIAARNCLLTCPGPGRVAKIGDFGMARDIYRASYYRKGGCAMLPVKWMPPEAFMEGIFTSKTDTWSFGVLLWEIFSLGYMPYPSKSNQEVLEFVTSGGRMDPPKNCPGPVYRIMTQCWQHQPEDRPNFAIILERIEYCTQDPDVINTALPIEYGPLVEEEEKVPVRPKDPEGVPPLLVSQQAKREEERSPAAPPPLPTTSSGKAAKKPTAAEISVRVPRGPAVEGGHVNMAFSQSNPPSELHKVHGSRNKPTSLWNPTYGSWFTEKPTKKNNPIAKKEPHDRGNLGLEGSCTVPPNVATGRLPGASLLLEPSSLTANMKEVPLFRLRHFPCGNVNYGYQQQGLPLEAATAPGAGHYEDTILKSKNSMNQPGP

| Structure (SMILES) | IC50 (ALK; [1]) | IC50 (JAK2; [2]) | IC50 (ALK; ALK Kinase Inhibition) | IC50 (JAK2; JAK2 Kinase Inhibition) |
| --- | --- | --- | --- | --- |
| CCN(CC)C1CCN(c2ccc(Nc3ncc4ccc(-c5cnn(C)c5)n4n3)cc2)CC1 [Example 1207, [4-(4-Diethylamino-piperidin-1-yl)-phenyl]-[7-(1-methyl-1H-pyrazol-4-yl)-pyrrolo[2,1-f][1,2,4]triazin-2-yl]-amine] | 100 to 1000 nM | < 100 nM |  |  |
| c1ccc(-c2ccc3cnc(Nc4ccc5nc[nH]c5c4)nn23)nc1 [Example 1562, (3H-Benzimidazol-5-yl)-(7-pyridin-2-yl-pyrrolo[2,1-f][1,2,4]triazin-2-yl)-amine] |  |  | 1000 to 10000 nM | < 100 nM |
| CN1CCN(C)C(c2cccc(Nc3ncc4ccc(-c5ccc(S(C)(=O)=O)cc5)n4n3)c2)C1=O (stereo not drawn) [Example 1084, 3-{3-[7-(4-Methanesulfonyl-phenyl)-pyrrolo[2,1-f][1,2,4]triazin-2-ylamino]-phenyl}-1,4-dimethyl-piperazin-2-one] | > 10000 nM | < 100 nM |  |  |
| COc1ccc(-c2ccc3cnc(Nc4cccc(NC(=O)CN(C)C)c4)nn23)cn1 [Example 899, 2-Dimethylamino-N-{3-[7-(6-methoxy-pyridin-3-yl)-pyrrolo[2,1-f][1,2,4]triazin-2-ylamino]-phenyl}-acetamide] | 100 to 1000 nM | < 100 nM |  |  |
| O=S(=O)(CC1CC1)c1cccc(-c2ccc3cnc(Nc4ccc5[nH]ncc5c4)nn23)c1 [Example 1314] | 1000 to 10000 nM | < 100 nM |  |  |
| CN1Cc2ccc(Nc3ncc4ccc(-c5cccc(S(=O)(=O)NC(C)(C)C)c5)n4n3)cc2C1 [Example 936, N-tert-Butyl-3-[2-(2-methyl-2,3-dihydro-1H-isoindol-5-ylamino)-pyrrolo[2,1-f][1,2,4]triazin-7-yl]-benzenesulfonamide] | 100 to 1000 nM | < 100 nM |  |  |
| c1cncc(-c2ccc3cnc(Nc4cnn(CCN5CCOCC5)c4)nn23)c1 [Example 1191, [1-(2-Morpholin-4-yl-ethyl)-1H-pyrazol-4-yl]-(7-pyridin-3-yl-pyrrolo[2,1-f][1,2,4]triazin-2-yl)-amine] | > 10000 nM | < 100 nM |  |  |
| CC(C)(C)NS(=O)(=O)c1cccc(-c2ccc3cnc(Nc4ccc(C5CCC(N6CCOCC6)CC5)cc4)nn23)c1 (stereo not drawn) [Example 565, N-tert-Butyl-3-{2-[4-(4-morpholin-4-yl-cyclohexyl)-phenylamino]-pyrrolo[2,1-f][1,2,4]triazin-7-yl}-benzenesulfonamide] | 100 to 1000 nM | < 100 nM |  |  |
| CN1CCN(C(=O)N2CCC(c3ccc(Nc4ncc5ccc(-c6ccccc6N(C)S(C)(=O)=O)n5n4)cc3)CC2)CC1 [Example 503, N-Methyl-N-[2-(2-{4-[1-(4-methyl-piperazine-1-carbonyl)-piperidin-4-yl]-phenylamino}-pyrrolo[2,1-f][1,2,4]triazin-7-yl)-phenyl]-methanesulfonamide] | < 100 nM | < 100 nM |  |  |
| COc1ccc(-c2ccc3cnc(Nc4ccc(OCCN5CCOCC5)cc4)nn23)cn1 [Example 1103, [7-(6-Methoxy-pyridin-3-yl)-pyrrolo[2,1-f][1,2,4]triazin-2-yl]-[4-(2-morpholin-4-yl-ethoxy)-phenyl]-amine] | 100 to 1000 nM | < 100 nM |  |  |
| COc1ccccc1-c1ccc2cnc(-c3nnc(C)[nH]3)nn12 [Example 1501, 7-(2-Methoxy-phenyl)-2-(5-methyl-4H-[1,2,4]triazol-3-yl)-pyrrolo[2,1-f][1,2,4]triazine] |  |  | > 10000 nM | > 10000 nM |
| CN(c1ccccc1-c1ccc2cnc(Nc3ccn(CCN4CCOCC4)n3)nn12)S(C)(=O)=O [Example 1186, N-Methyl-N-(2-{2-[1-(2-morpholin-4-yl-ethyl)-1H-pyrazol-3-ylamino]-pyrrolo[2,1-f][1,2,4]triazin-7-yl}-phenyl)-methanesulfonamide] | 100 to 1000 nM | < 100 nM |  |  |
| Cn1ccc(-c2ccc3cnc(Nc4ccc(C5CCN(CC(N)=O)CC5)cc4)nn23)n1 [Example 955] | 100 to 1000 nM | < 100 nM |  |  |
| CCNC(=O)Nc1cccc(Nc2ncc3ccc(-c4ccc(OC)nc4)n3n2)c1 [Example 901, 1-Ethyl-3-{3-[7-(6-methoxy-pyridin-3-yl)-pyrrolo[2,1-f][1,2,4]triazin-2-ylamino]-phenyl}-urea] | > 10000 nM | < 100 nM |  |  |
| CN1CCN(C2CCN(c3ccc(Nc4ncc5ccc(-c6cccc(Cl)c6)n5n4)cc3)CC2)CC1 [Example 312, [7-(3-Chloro-phenyl)-pyrrolo[2,1-f][1,2,4]triazin-2-yl]-{4-[4-(4-methyl-piperazin-1-yl)-piperidin-1-yl]-phenyl}-amine] |  |  | < 100 nM | < 100 nM |
| CS(=O)(=O)c1ccc(-c2ccc3cnc(Nc4ccc(N5CCCC(N6CCOCC6)C5)cc4)nn23)cc1 (stereo not drawn) [Example 346, [7-(4-Methanesulfonyl-phenyl)-pyrrolo[2,1-f][1,2,4]triazin-2-yl]-[4-(3-morpholin-4-yl-piperidin-1-yl)-phenyl]-amine] |  |  | 100 to 1000 nM | < 100 nM |
| CN1C(=O)COc2cc(Nc3ncc4ccc(-c5cccnc5)n4n3)ccc21 [Example 649, 4-Methyl-7-(7-pyridin-3-yl-pyrrolo[2,1-f][1,2,4]triazin-2-ylamino)-4H-benzo[1,4]oxazin-3-one] | 1000 to 10000 nM | < 100 nM |  |  |
| CS(=O)(=O)c1cccc(-c2ccc3cnc(Nc4ccc5[nH]c(CN6CCN(CCO)CC6)nc5c4)nn23)c1 [Example 1539, 2-(4-{5-[7-(3-Methanesulfonyl-phenyl)-pyrrolo[2,1-f][1,2,4]triazin-2-ylamino]-1H-benzimidazol-2-ylmethyl}-piperazin-1-yl)-ethanol] |  |  | 1000 to 10000 nM | < 100 nM |

Further lines, results first:

| IC50 (ALK; [1]) | IC50 (JAK2; [2]) | IC50 (ALK; ALK Kinase Inhibition) | IC50 (JAK2; JAK2 Kinase Inhibition) | Structure (SMILES) |
| --- | --- | --- | --- | --- |
| 100 to 1000 nM | < 100 nM |  |  | CC(C)(C)NS(=O)(=O)c1cccc(-c2ccc3cnc(Nc4ccc(N5CCOCC5)cc4)nn23)c1 [Example 561, N-tert-Butyl-3-[2-(4-morpholin-4-yl-phenylamino)-pyrrolo[2,1-f][1,2,4]triazin-7-yl]-benzenesulfonamide] |
| 100 to 1000 nM | < 100 nM |  |  | CN1CCN(c2ccc(Nc3ncc4ccc(-c5cccnc5F)n4n3)cc2)CC1 [Example 1041, [7-(2-Fluoro-pyridin-3-yl)-pyrrolo[2,1-f][1,2,4]triazin-2-yl]-[4-(4-methyl-piperazin-1-yl)-phenyl]-amine] |
|  |  | < 100 nM | < 100 nM | COc1ccccc1-c1ccc2cnc(Nc3ccc(N4CCCC(N5CCN(C)CC5)C4)cc3)nn12 (stereo not drawn) [Example 348, [7-(2-Methoxy-phenyl)-pyrrolo[2,1-f][1,2,4]triazin-2-yl]-{4-[3-(4-methyl-piperazin-1-yl)-piperidin-1-yl]-phenyl}-amine] |
| 100 to 1000 nM | < 100 nM |  |  | COc1ccccc1-c1ccc2cnc(Nc3ccc4nc(C(C)(C)C)[nH]c4c3)nn12 [Example 1352, (2-tert-Butyl-3H-benzimidazol-5-yl)-[7-(2-methoxy-phenyl)-pyrrolo[2,1-f][1,2,4]triazin-2-yl]-amine] |
| < 100 nM | 100 to 1000 nM |  |  | COc1cc(C2(C#N)CCC(O)CC2)ccc1Nc1ncc2ccc(-c3ccccc3N(C)S(C)(=O)=O)n2n1 (stereo not drawn) [Example 1253, N-(2-{2-[4-(1-Cyano-4-hydroxy-cyclohexyl)-2-methoxy-phenylamino]-pyrrolo[2,1-f][1,2,4]triazin-7-yl}-phenyl)-N-methyl-methanesulfonamide] |
|  |  | 1000 to 10000 nM | < 100 nM | COc1cccc(Nc2ncc3ccc(-c4ccccc4OC)n3n2)c1 [Example 145, (3-Methoxy-phenyl)-[7-(2-methoxy-phenyl)-pyrrolo[2,1-f][1,2,4]triazin-2-yl]-amine] |
|  |  | < 100 nM | < 100 nM | COc1ccccc1-c1ccc2cnc(Nc3cccc(N4CCN(CC(C)(C)O)CC4)c3)nn12 [Example 218, 1-(4-{3-[7-(2-Methoxy-phenyl)-pyrrolo[2,1-f][1,2,4]triazin-2-ylamino]-phenyl}-piperazin-1-yl)-2-methyl-propan-2-ol] |
|  |  | < 100 nM | < 100 nM | COc1ccc(Cl)cc1-c1ccc2cnc(Nc3cccc(N4CCN(CCO)CC4)c3)nn12 [Example 180, 2-(4-{3-[7-(5-Chloro-2-methoxy-phenyl)-pyrrolo[2,1-f][1,2,4]triazin-2-ylamino]-phenyl}-piperazin-1-yl)-ethanol] |
| 100 to 1000 nM | < 100 nM |  |  | C#CCNC(=O)c1cccc(-c2ccc3cnc(Nc4ccc(N5CCN(C)CC5)cc4)nn23)c1 [Example 1147, 3-{2-[4-(4-Methyl-piperazin-1-yl)-phenylamino]-pyrrolo[2,1-f][1,2,4]triazin-7-yl}-N-prop-2-ynyl-benzamide] |
| 100 to 1000 nM | < 100 nM |  |  | CN1CCN(c2ccc(Nc3ncc4ccc(-c5cccc(NS(C)(=O)=O)c5)n4n3)cn2)CC1 [Example 1122, N-(3-{2-[6-(4-Methyl-piperazin-1-yl)-pyridin-3-ylamino]-pyrrolo[2,1-f][1,2,4]triazin-7-yl}-phenyl)-methanesulfonamide] |
| 1000 to 10000 nM | < 100 nM |  |  | CN(c1ccccc1-c1ccc2cnc(Nc3ccc4ncn(CCN5CCOCC5)c4c3)nn12)S(C)(=O)=O [Example 1336, N-Methyl-N-(2-{2-[3-(2-morpholin-4-yl-ethyl)-3H-benzimidazol-5-ylamino]-pyrrolo[2,1-f][1,2,4]triazin-7-yl}-phenyl)-methanesulfonamide] |
|  |  | > 10000 nM | < 100 nM | N#Cc1cccc(-c2ccc3cnc(Nc4ccc(N5CCOCC5)cc4)nn23)c1 [Example 39, 3-[2-(4-Morpholin-4-yl-phenylamino)-pyrrolo[2,1-f][1,2,4]triazin-7-yl]-benzonitrile] |
